Reference: publication PMC10408569, “Recruitment of hexahydroquinoline as anticancer scaffold targeting inhibition of wild and mutants EGFR (EGFR^WT, EGFR^T790M, and EGFR^L858R)” (Journal of Enzyme Inhibition and Medicinal Chemistry, 2023)

Assays:
UACC-62 = assay: NCI-60 anticancer screening (SRB); assay type: cell-based; conditions: Homo sapiens; UACC-62, melanoma; one dose 10 μM; read-out: Growth Inhibition Percentage (GI %)
MDA-MB-468 = assay: NCI-60 anticancer screening (SRB); assay type: cell-based; conditions: Homo sapiens; MDA-MB-468, breast cancer; one dose 10 μM; read-out: Growth Inhibition Percentage (GI %)
A549/ATCC = assay: NCI-60 anticancer screening (SRB); assay type: cell-based; conditions: Homo sapiens; A549/ATCC, NSC lung cancer; one dose 10 μM; read-out: Growth Inhibition Percentage (GI %)
HCC-2998 = assay: NCI-60 anticancer screening (SRB); assay type: cell-based; conditions: Homo sapiens; HCC-2998, colon cancer; one dose 10 μM; read-out: Growth Inhibition Percentage (GI %)
CCRF-CEM = assay: NCI-60 anticancer screening (SRB); assay type: cell-based; conditions: Homo sapiens, leukemia, one dose 10 μM, read-out: Growth Inhibition Percentage (GI %)
MCF7 = assay: NCI-60 anticancer screening (SRB); assay type: cell-based; conditions: Homo sapiens; MCF7, breast cancer; one dose 10 μM; read-out: Growth Inhibition Percentage (GI %)
SK-MEL-28 = assay: NCI-60 anticancer screening (SRB); assay type: cell-based; conditions: Homo sapiens; SK-MEL-28, melanoma; one dose 10 μM; read-out: Growth Inhibition Percentage (GI %)
NCI/ADR-RES = assay: NCI-60 anticancer screening (SRB); assay type: cell-based; conditions: Homo sapiens, ovarian cancer, one dose 10 μM, read-out: Growth Inhibition Percentage (GI %)
TK-10 = assay: NCI-60 anticancer screening (SRB); assay type: cell-based; conditions: Homo sapiens; TK-10, renal cancer; one dose 10 μM; read-out: Growth Inhibition Percentage (GI %)
OVCAR-3 = assay: NCI-60 anticancer screening (SRB); assay type: cell-based; conditions: Homo sapiens; OVCAR-3, ovarian cancer; one dose 10 μM; read-out: Growth Inhibition Percentage (GI %)
MOLT-4 = assay: NCI-60 anticancer screening (SRB); assay type: cell-based; conditions: Homo sapiens; MOLT-4, leukemia; one dose 10 μM; read-out: Growth Inhibition Percentage (GI %)
SW-620 = assay: NCI-60 anticancer screening (SRB); assay type: cell-based; conditions: Homo sapiens; SW-620, colon cancer; one dose 10 μM; read-out: Growth Inhibition Percentage (GI %)
UO-31 = assay: NCI-60 anticancer screening (SRB); assay type: cell-based; conditions: Homo sapiens; UO-31, renal cancer; one dose 10 μM; read-out: Growth Inhibition Percentage (GI %)
PC-3 = assay: NCI-60 anticancer screening (SRB); assay type: cell-based; conditions: Homo sapiens; PC-3, prostate cancer; one dose 10 μM; read-out: Growth Inhibition Percentage (GI %)
KM 12 = assay: NCI-60 anticancer screening (SRB); assay type: cell-based; conditions: Homo sapiens, KM12; KM 12, colon cancer; one dose 10 μM; read-out: Growth Inhibition Percentage (GI %)
MDA-MB-435 = assay: NCI-60 anticancer screening (SRB); assay type: cell-based; conditions: Homo sapiens; MDA-MB-435, melanoma; one dose 10 μM; read-out: Growth Inhibition Percentage (GI %)
HS 578T = assay: NCI-60 anticancer screening (SRB); assay type: cell-based; conditions: Homo sapiens; HS 578T, breast cancer; one dose 10 μM; read-out: Growth Inhibition Percentage (GI %)
COLO 205 = assay: NCI-60 anticancer screening (SRB); assay type: cell-based; conditions: Homo sapiens; COLO 205, colon cancer; one dose 10 μM; read-out: Growth Inhibition Percentage (GI %)
OVCAR-4 = assay: NCI-60 anticancer screening (SRB); assay type: cell-based; conditions: Homo sapiens; OVCAR-4, ovarian cancer; one dose 10 μM; read-out: Growth Inhibition Percentage (GI %)
RXF 393 = assay: NCI-60 anticancer screening (SRB); assay type: cell-based; conditions: Homo sapiens; RXF 393, renal cancer; one dose 10 μM; read-out: Growth Inhibition Percentage (GI %)
MDA-MB-231 = assay: NCI-60 anticancer screening (SRB); assay type: cell-based; conditions: Homo sapiens; MDA-MB-231, breast cancer; one dose 10 μM; read-out: Growth Inhibition Percentage (GI %)
SK-OV-3 = assay: NCI-60 anticancer screening (SRB); assay type: cell-based; conditions: Homo sapiens; SK-OV-3, ovarian cancer; one dose 10 μM; read-out: Growth Inhibition Percentage (GI %)
OVCAR-8 = assay: NCI-60 anticancer screening (SRB); assay type: cell-based; conditions: Homo sapiens; OVCAR-8, ovarian cancer; one dose 10 μM; read-out: Growth Inhibition Percentage (GI %)
HL-60(TB) = assay: NCI-60 anticancer screening (SRB); assay type: cell-based; conditions: Homo sapiens, leukemia, one dose 10 μM, read-out: Growth Inhibition Percentage (GI %)
NCI 60 cancer cell lines = assay: NCI-60 anticancer screening (SRB), whole panel; assay type: cell-based, human; conditions: mean across the NCI-60 panel; one dose 10 μM
BT-549 = assay: NCI-60 anticancer screening (SRB); assay type: cell-based; conditions: Homo sapiens; BT-549, breast cancer; one dose 10 μM; read-out: Growth Inhibition Percentage (GI %)
HCT-15 = assay: NCI-60 anticancer screening (SRB); assay type: cell-based; conditions: Homo sapiens; HCT-15, colon cancer; one dose 10 μM; read-out: Growth Inhibition Percentage (GI %)
NCI-H322M = assay: NCI-60 anticancer screening (SRB); assay type: cell-based; conditions: Homo sapiens, NSC lung cancer, one dose 10 μM, read-out: Growth Inhibition Percentage (GI %)

Row | SMILES | inhibition at 10 µM (UACC-62) | inhibition at 10 µM (MDA-MB-468) | inhibition at 10 µM (A549/ATCC) | inhibition at 10 µM (HCC-2998) | inhibition at 10 µM (CCRF-CEM) | inhibition at 10 µM (MCF7) | inhibition at 10 µM (SK-MEL-28) | inhibition at 10 µM (NCI/ADR-RES) | inhibition at 10 µM (TK-10) | inhibition at 10 µM (OVCAR-3) | inhibition at 10 µM (MOLT-4) | inhibition at 10 µM (SW-620) | inhibition at 10 µM (UO-31) | inhibition at 10 µM (PC-3) | inhibition at 10 µM (KM 12) | inhibition at 10 µM (MDA-MB-435) | inhibition at 10 µM (HS 578T) | inhibition at 10 µM (COLO 205) | inhibition at 10 µM (OVCAR-4) | inhibition at 10 µM (RXF 393) | further results
1 | CCOC(=O)C1=C(N)N(c2ccc(Cl)cc2)C2=C(C(=O)CC(C)(C)C2)C1c1ccc(N2CCOCC2)cc1 (racemic) [8m, (±)-Ethyl 2-amino-1–(4-chlorophenyl)-7,7-dimethyl-4-[4-(morpholin-4-yl)phenyl]-5-oxo-1,4,5,6,7,8-hexahydroquinoline-3-carboxylate] | 17% | 16% | < 10% | < 10% | < 10% | < 10% | < 10% | < 10% | < 10% | < 10% | < 10% | < 10% | 15% | < 10% | < 10% | < 10% | < 10% | < 10% | < 10% | < 10% | inhibition at 10 µM (MDA-MB-231): 13%; inhibition at 10 µM (SK-OV-3): < 10%; inhibition at 10 µM (OVCAR-8): < 10%; inhibition at 10 µM (HL-60(TB)): < 10%; GI % mean (NCI 60 cancer cell lines): - ((-) = GI % mean less than 10); inhibition at 10 µM (BT-549): 76%; inhibition at 10 µM (HCT-15): < 10%; inhibition at 10 µM (NCI-H322M): < 10%
2 | CCOC(=O)C1=C(N)N(c2ccc(Cl)cc2)C2=C(C(=O)CC(C)(C)C2)C1c1ccc([N+](=O)[O-])cc1 (racemic) [8k, (±)-Ethyl2-amino-1–(4-chlorophenyl)-7,7-dimethyl-4–(4-nitrophenyl)-5-oxo-1,4,5,6,7,8-hexahydroquinoline-3-carboxylate] | 29% | 18% | 11% | < 10% | < 10% | 19% | < 10% | 16% | < 10% | < 10% | 27% | < 10% | 32% | 26% | 12% | < 10% | < 10% | < 10% | < 10% | < 10% | inhibition at 10 µM (MDA-MB-231): < 10%; inhibition at 10 µM (SK-OV-3): < 10%; inhibition at 10 µM (OVCAR-8): 12%; inhibition at 10 µM (HL-60(TB)): 22%; GI % mean (NCI 60 cancer cell lines): - ((-) = GI % mean less than 10); inhibition at 10 µM (BT-549): < 10%; inhibition at 10 µM (HCT-15): 18%; inhibition at 10 µM (NCI-H322M): < 10%
3 | CCOC(=O)C1=C(N)N(c2ccccc2)C2=C(C(=O)CC(C)(C)C2)C1c1ccc(OC)cc1 (racemic) [8f, (±)-Ethyl2-amino-4–(4-methoxyphenyl)-7,7-dimethyl-5-oxo-1-phenyl-1,4,5,6,7,8-hexahydroquinoline-3-carboxylate] | < 10% | < 10% | < 10% | < 10% | < 10% | 13% | < 10% | < 10% | < 10% | < 10% | 14% | < 10% | < 10% | 18% | < 10% | < 10% | 12% | < 10% | < 10% | < 10% | inhibition at 10 µM (MDA-MB-231): < 10%; inhibition at 10 µM (SK-OV-3): < 10%; inhibition at 10 µM (OVCAR-8): < 10%; inhibition at 10 µM (HL-60(TB)): < 10%; GI % mean (NCI 60 cancer cell lines): - ((-) = GI % mean less than 10); inhibition at 10 µM (BT-549): < 10%; inhibition at 10 µM (HCT-15): < 10%; inhibition at 10 µM (NCI-H322M): < 10%
4 | CCOC(=O)C1=C(N)N(c2ccccc2)C2=C(C(=O)CC(C)(C)C2)C1c1ccccn1 (racemic) [12a, (±)-Ethyl 2-amino-7,7-dimethyl-5-oxo-1-phenyl-4-(pyridin-2-yl)-1,4,5,6,7,8-hexahydroquinoline-3-carboxylate] | < 10% | < 10% | < 10% | < 10% | < 10% | < 10% | < 10% | < 10% | < 10% | < 10% | < 10% | < 10% | < 10% | < 10% | < 10% | < 10% | < 10% | < 10% | < 10% | < 10% | inhibition at 10 µM (MDA-MB-231): < 10%; inhibition at 10 µM (SK-OV-3): < 10%; inhibition at 10 µM (OVCAR-8): < 10%; inhibition at 10 µM (HL-60(TB)): < 10%; GI % mean (NCI 60 cancer cell lines): - ((-) = GI % mean less than 10); inhibition at 10 µM (BT-549): < 10%; inhibition at 10 µM (HCT-15): < 10%; inhibition at 10 µM (NCI-H322M): < 10%
